Positions of bridges follow the written chain, without caps; N, C: chain ends. Non-standard residues stand in square brackets, D forms with d. Residues, ends and D or L forms follow the SMILES beside them. *: point of attachment. X2 = O=C(c1ccccc1)c1ccc(OCCCC(=O)*)cc1; X1 = O=C(CCCOc1ccc(Cc2ccccc2)cc1)*; NMeF = CN[C@@H](Cc1ccccc1)C(=O)O; NMeL = CN[C@@H](CC(C)C)C(=O)O; NMeS = CN[C@@H](CO)C(=O)O; Abu = CC[C@H](N)C(=O)O; Dap = NC[C@H](N)C(=O)O; Ava = NCCCCC(=O)O; Mpa = O=C(O)CCS
What was measured:
[1] = Inhibition of Staphylococcus aureus AgrC3
[2] = Inhibition of Staphylococcus aureus AgrC1
[3] = Inhibition of Staphylococcus aureus AgrC2
[4] = Activation of Staphylococcus aureus AgrC4
[5] = Activation of Staphylococcus aureus AgrC1
[6] = Inhibition of Staphylococcus aureus AgrC4
Staphylococcus aureus = test: Inhibition of Staphylococcus aureus AgrC1-mediated RNA3 promoter activation at 12 uM
[7] = Inhibition of Staphylococcus aureus AgrC1-mediated RNA3 promoter activation

| SMILES | IC50 [1] [nM] | IC50 [2] [nM] | IC50 [3] [nM] | also measured |
| --- | --- | --- | --- | --- |
| O=C(Nc1ccc2c(c1)OCO2)C(c1ccccc1)N1CCCCC1 (stereo not given) | 1260 | – | – | – |
| CC1CCCN(C(C(=O)Nc2ccc3c(c2)OCO3)c2ccccc2)C1 (stereo not given) | 160 | – | – | – |
| CCc1oc2ccccc2c1C(=O)c1ccc(O)cc1 [BENZARONE] | – | 1290 | – | – |
| CC(=O)N[C@H]1CSC(=O)[C@H](Cc2ccccc2)NC(=O)[C@H](CC(C)C)NC(=O)[C@H](CO)NC(=O)[C@H](CO)N(C)C1=O (Ac-C[NMeS]SLF; thioester 1-C) | – | 639 | 7880 | – |
| CCc1oc2ccccc2c1C(=O)c1cc(Br)c(O)c(Br)c1 [BENZBROMARONE] | – | 130 | – | – |
| CC(=O)N[C@H]1CSC(=O)[C@H](Cc2ccccc2)N(C)C(=O)[C@H](CC(C)C)NC(=O)[C@H](CO)NC(=O)[C@H](CO)NC1=O (Ac-CSSL[NMeF]; thioester 1-C) | – | > 30000 | > 30000 | – |
| CC[C@H](C)[C@@H]1NC(=O)[C@H](Cc2ccccc2)NC(=O)[C@H](CC(=O)O)NC(=O)[C@@H](NC(=O)[C@@H](NC(=O)[C@H](CO)NC(=O)[C@@H](N)Cc2ccc(O)cc2)[C@@H](C)O)CSC(=O)[C@H](CCSC)NC1=O (H-YSTCDFIM; thioester 4-C) | 3 | – | 25 | EC50 [4]: 26000 nM; EC50 [5]: 28 nM |
| CC[C@@H]1NC(=O)[C@@H](NC(=O)[C@@H](NC(=O)[C@H](CO)NC(=O)[C@@H](N)Cc2ccc(O)cc2)[C@@H](C)O)CSC(=O)[C@H](CCSC)NC(=O)[C@H]([C@@H](C)CC)NC(=O)[C@H](Cc2ccccc2)NC1=O (H-YSTC[Abu]FIM; thioester 4-C) | – | 137 | 2.8 | – |
| CC(C)c1ccc(S(=O)(=O)c2nnn3c2nc(O)c2ccccc23)cc1 [SAVIRIN] | – | < 1000 | – | – |
| CC1CCN(C(C(=O)Nc2ccc(C(C)C)cc2)c2ccc3c(c2)OCO3)CC1 (stereo not given) | 720 | – | – | – |
| CCOC(=O)c1c(C)oc2cc(-c3cc(Br)c(O)c(Br)c3)ccc12 | – | 780 | – | – |
| CC(=O)N[C@H]1CSC(=O)[C@H](Cc2ccccc2)NC(=O)[C@H](CC(C)C)NC(=O)[C@H](CO)NC(=O)CNC1=O (Ac-CGSLF; thioester 1-C) | – | 189 | 1160 | – |
| CC(C)c1ccc(NC(=O)C(c2ccc3c(c2)OCO3)N2CCCCC2)cc1 (stereo not given) | 250 | – | – | – |
| CC(=O)N[C@H]1CSC(=O)[C@H](Cc2ccccc2)NC(=O)[C@H](CC(C)C)NC(=O)[C@H](CO)NC(=O)[C@H](CO)NC1=O (Ac-CSSLF; thioester 1-C) | 4 | 260 | 230 | IC50 [6]: 150 nM |
| CC(=O)N[C@H]1CNC(=O)[C@H](Cc2ccccc2)NC(=O)[C@H](CC(C)C)NC(=O)[C@H](CO)NC(=O)[C@H](CO)NC1=O (Ac-[Dap]SSLF; lactam 1-C) | – | 1390 | 167000 | – |
| CCCCCCCc1cc(O)c2ccccc2[n+]1[O-] | – | 1300 | – | – |
| CC[C@H](C)[C@@H]1NC(=O)[C@H](Cc2ccccc2)NC(=O)[C@H](C)NC(=O)[C@@H](NC(=O)[C@@H](NC(=O)[C@H](CO)NC(=O)CCCOc2ccc(C(=O)c3ccccc3)cc2)[C@@H](C)O)CSC(=O)[C@H](CCSC)NC1=O (X2-STCAFIM; thioester 3-C) | – | 303 | 18 | – |

| SMILES | IC50 [1] [nM] | IC50 [2] [nM] | IC50 [3] [nM] | also measured |
| --- | --- | --- | --- | --- |
| CC1CCCN(C(C(=O)Nc2ccc3c(c2)OCCO3)c2ccccc2)C1 (stereo not given) | 130 | – | – | inhibition (Staphylococcus aureus): > 90%; IC50 [7]: 100 nM |
| CC1CCN(C(C(=O)Nc2ccc3c(c2)OCO3)c2ccccc2)CC1 (stereo not given) | 980 | – | – | – |
| CC(=O)N[C@H]1CSC(=O)[C@H](Cc2ccccc2)NC(=O)[C@H](CC(C)C)NC(=O)CNC(=O)CNC1=O (Ac-CGGLF; thioester 1-C) | – | 77 | 238 | – |
| COc1ccc(NC(=O)C(c2cc3c(cc2[N+](=O)[O-])OCO3)N2CC(C)CC(C)C2)cc1 (stereo not given) | 1310 | – | – | – |
| CC(C)C[C@@H]1NC(=O)[C@H](CO)NC(=O)[C@H](CO)NC(=O)CCSC(=O)[C@H](Cc2ccccc2)N(C)C1=O ([Mpa]SSL[NMeF]; thioester 1-C) | – | 1680 | 47300 | – |
| CC[C@H](C)[C@@H]1NC(=O)[C@H](Cc2ccccc2)NC(=O)[C@H](CC(=O)O)NC(=O)[C@@H](NC(C)=O)CSC(=O)[C@H](CCSC)NC1=O (Ac-CDFIM; thioester 1-C) | 240 | – | 47 | EC50 [5]: 5800 nM |
| CC(=O)N[C@H]1CSC(=O)[C@H](Cc2ccccc2)NC(=O)[C@H](CC(C)C)N(C)C(=O)[C@H](CO)NC(=O)[C@H](CO)NC1=O (Ac-CSS[NMeL]F; thioester 1-C) | – | > 30000 | > 30000 | – |
| CC(=O)N[C@H]1CSC(=O)[C@H](Cc2ccccc2)NC(=O)[C@H](CC(C)C)NC(=O)CCCCNC1=O (Ac-C[Ava]LF; thioester 1-C) | – | 1140 | 50700 | – |
| CC(=O)N[C@H]1CSC(=O)[C@H](Cc2ccccc2)NC(=O)[C@H](CC(C)C)NC(=O)CNC(=O)[C@H](CO)NC1=O (Ac-CSGLF; thioester 1-C) | – | 40 | 194 | – |
| CC[C@H](C)[C@@H]1NC(=O)[C@H](Cc2ccccc2)NC(=O)[C@H](C)NC(=O)[C@@H](NC(=O)[C@@H](NC(=O)[C@H](CO)NC(=O)CCCOc2ccc(Cc3ccccc3)cc2)[C@@H](C)O)CSC(=O)[C@H](CCSC)NC1=O (X1-STCAFIM; thioester 3-C) | – | 295 | 19 | – |
| CC[C@H](C)[C@@H]1NC(=O)[C@H](Cc2ccccc2)NC(=O)[C@H](C)NC(=O)[C@@H](NC(C)=O)CSC(=O)[C@H](CCSC)NC1=O (Ac-CAFIM; thioester 1-C) | 0.1 | 5 | 5 | IC50 [6]: 5 nM |
| CC(=O)N[C@H]1CSC(=O)[C@H](Cc2ccccc2)NC(=O)[C@H](CC(C)C)NC(=O)[C@H](CO)N(C)C(=O)[C@H](CO)NC1=O (Ac-CS[NMeS]LF; thioester 1-C) | – | 319 | 1050 | – |
| CCCCc1oc2ccccc2c1C(=O)c1ccc(O)cc1 | – | 540 | – | – |
| O=C(Nc1ccc2c(c1)OCO2)C(c1ccccc1)N1CCC(Cc2ccccc2)CC1 (stereo not given) | 980 | – | – | – |
| CC[C@H](C)[C@@H]1NC(=O)[C@H](Cc2ccccc2)NC(=O)[C@H](Cc2ccc(O)cc2)NC(=O)[C@@H](NC(C)=O)CSC(=O)[C@H](CCSC)NC1=O (Ac-CYFIM; thioester 1-C) | 10 | 930 | 8 | IC50 [6]: 4100 nM |
| CC[C@H](C)[C@@H]1NC(=O)[C@H](Cc2ccccc2)NC(=O)[C@H](C)NC(=O)[C@@H](NC(=O)[C@@H](NC(=O)[C@H](CO)NC(=O)[C@@H](N)Cc2ccc(O)cc2)[C@@H](C)O)CSC(=O)[C@H](CCSC)NC1=O (H-YSTCAFIM; thioester 4-C) | 0.3 | 5 | 8 | IC50 [6]: 3 nM |

From ChEMBL document CHEMBL2331293, “Attenuating Staphylococcus aureus virulence gene regulation: a medicinal chemistry perspective” (J Med Chem, 2013)
